Test results: PMC11012124, “Synthesis of Novel Triazine-Based Chalcones and 8,9-dihydro-7H-pyrimido[4,5-b][1,4]diazepines as Potential Leads in the Search of Anticancer, Antibacterial and Antifungal Agents” (International Journal of Molecular Sciences, 2024)

Assays:
[1] = tested on: HOP-92; assay: cells; conditions: Homo sapiens, HOP-92, 48 h; for CC50: read-out: LC50
[2] = tested on: SK-MEL-2; assay: cells; conditions: Homo sapiens, SK-MEL-2, 48 h; for CC50: read-out: LC50
[3] = tested on: KM12; assay: cells; conditions: Homo sapiens, KM12, 48 h; for CC50: read-out: LC50
[4] = tested on: EKVX; assay: cells; conditions: Homo sapiens, 48 h; for CC50: read-out: LC50
[5] = tested on: 786-0; assay: cells; conditions: Homo sapiens, 786-0, 48 h; for CC50: read-out: LC50
[6] = tested on: ACHN; assay: cells; conditions: Homo sapiens, 48 h; for CC50: read-out: LC50
[7] = tested on: HOP-62; assay: cells; conditions: Homo sapiens, HOP-62, 48 h; for CC50: read-out: LC50
[8] = tested on: A549/ATCC; assay: cells; conditions: Homo sapiens, A549, 48 h; for CC50: read-out: LC50
[9] = tested on: HT29; assay: cells; conditions: Homo sapiens, HT-29, 48 h; for CC50: read-out: LC50
[10] = tested on: U251; assay: cells; conditions: Homo sapiens, U-251, 48 h; for GI50: U251, 48 h; for CC50: read-out: LC50
[11] = tested on: SF-295; assay: cells; conditions: Homo sapiens, SF-295, 48 h; for CC50: read-out: LC50
[12] = tested on: MALME-3M; assay: cells; conditions: Homo sapiens, 48 h; for CC50: read-out: LC50
[13] = tested on: RXF 393; assay: cells; conditions: Homo sapiens, RXF 393, 48 h; for CC50: read-out: LC50
[14] = tested on: SF-268; assay: cells; conditions: Homo sapiens, SF-268, 48 h; for CC50: read-out: LC50
[15] = tested on: COLO 205; assay: cells; conditions: Homo sapiens, COLO 205, 48 h; for CC50: read-out: LC50
[16] = tested on: T-47D; assay: cells; conditions: Homo sapiens, T47D, 48 h; for CC50: read-out: LC50
[17] = tested on: MDA-MB-231/ATCC; assay: cells; conditions: Homo sapiens, MDA-MB-231, 48 h
[18] = tested on: OVCAR-5; assay: cells; conditions: Homo sapiens, OVCAR-5, 48 h; for CC50: read-out: LC50
[19] = Hemolytic activity, spectrophotometric; format: cell-based, human; conditions: human, human red blood cells (huRBC), 5% hematocrit, 200 μg/mL, 37 °C
[20] = tested on: LOX IMVI; assay: cells; conditions: Homo sapiens, 48 h; for CC50: read-out: LC50, LOX IMVI, 48 h
[21] = tested on: IGROV1; assay: cells; conditions: Homo sapiens, IGROV-1, 48 h; for CC50: read-out: LC50
[22] = tested on: SK-MEL-5; assay: cells; conditions: Homo sapiens, SK-MEL-5, 48 h; for CC50: read-out: LC50
[23] = tested on: HCT-116; assay: cells; conditions: Homo sapiens, HCT-116, 48 h; for CC50: read-out: LC50
[24] = tested on: CAKI-1; assay: cells; conditions: Homo sapiens, CAKI-1, 48 h; for CC50: read-out: LC50
[25] = tested on: K-562; assay: cells; conditions: Homo sapiens, K562, 48 h; for GI50: K-562, 48 h; for CC50: read-out: LC50
[26] = tested on: HCT-15; assay: cells; conditions: Homo sapiens, HCT-15, 48 h; for CC50: read-out: LC50
[27] = tested on: HCC-2998; assay: cells; conditions: Homo sapiens, HCC 2998, 48 h; for CC50: read-out: LC50
[28] = tested on: SK-OV-3; assay: cells; conditions: Homo sapiens, SK-OV-3, 48 h; for CC50: read-out: LC50
[29] = tested on: CCRF-CEM; assay: cells; conditions: Homo sapiens, 48 h; for CC50: read-out: LC50
[30] = tested on: UO-31; assay: cells; conditions: Homo sapiens, UO-31, 48 h; for CC50: read-out: LC50
[31] = tested on: A498; assay: cells; conditions: Homo sapiens, A498, 48 h; for CC50: read-out: LC50
[32] = tested on: OVCAR-3; assay: cells; conditions: Homo sapiens, OVCAR-3, 48 h; for CC50: read-out: LC50
[33] = tested on: MOLT-4; assay: cells; conditions: Homo sapiens, MOLT-4, 48 h; for CC50: read-out: LC50
[34] = tested on: SK-MEL-28; assay: cells; conditions: Homo sapiens, SK-MEL-28, 48 h; for CC50: read-out: LC50
[35] = tested on: NCI-H23; assay: cells; conditions: Homo sapiens, NCI-H23, 48 h; for CC50: read-out: LC50
[36] = tested on: PC-3; assay: cells; conditions: Homo sapiens, PC-3, 48 h; for CC50: read-out: LC50
[37] = tested on: NCI-H460; assay: cells; conditions: Homo sapiens, NCI-H460, 48 h; for CC50: read-out: LC50
[38] = tested on: SW-620; assay: cells; conditions: Homo sapiens, SW-620, 48 h; for CC50: read-out: LC50

## COc1cc(/C=C/C(=O)c2cc(OC)c(OC)c(OC)c2)ccc1Oc1nc(NCCO)nc(N2CCOCC2)n1 [20d]
[1]
  GI50: 2.75 µM
  CC50: 35.4 µM
[2]
  GI50: 2.76 µM
  CC50: 33.1 µM
[3]
  GI50: 2.99 µM
  CC50: > 100 µM
[4]
  GI50: 2.81 µM
  CC50: 36.6 µM
[5]
  GI50: 3.46 µM
  CC50: 43.6 µM
[6]
  GI50: 1.64 µM
  CC50: 7.9 µM
[7]
  GI50: 2.35 µM
  CC50: 22.4 µM
[8]
  GI50: 2.78 µM
  CC50: 42.2 µM
[9]
  GI50: 2.83 µM
  CC50: 32.9 µM
[10]
  GI50: 1.62 µM
  CC50: 6.02 µM
[11]
  GI50: 2.9 µM
  CC50: 35.2 µM
[12]
  GI50: 2.67 µM
  CC50: 24.3 µM
[13]
  GI50: 1.75 µM
  CC50: 6.94 µM
[14]
  GI50: 3.02 µM
  CC50: 71.8 µM
[15]
  GI50: 2.1 µM
  CC50: 9.18 µM
[16]
  GI50: 3.12 µM
  CC50: 39.9 µM
[17]
  GI50: 2.86 µM
[17]; read-out: LC50
  CC50: 35.4 µM
[18]
  GI50: 3.14 µM
  CC50: 38.4 µM
[19]
  hemolysis at 24 h, 200 µg/mL: 1.2%
[20]
  GI50: 0.642 µM
  CC50: 4.99 µM
[21]
  GI50: 2.45 µM
  CC50: 26.2 µM
[22]
  GI50: 1.77 µM
  CC50: 6.19 µM
[23]
  GI50: 1.53 µM
  CC50: 6.78 µM
[24]
  GI50: 2.43 µM
  CC50: 30.4 µM
[25]
  GI50: 1.91 µM
  CC50: > 100 µM
[26]
  GI50: 1.6 µM
  CC50: 10.2 µM
[27]
  GI50: 2.23 µM
  CC50: 7.97 µM
[28]
  GI50: 2.44 µM
  CC50: 22 µM
[29]
  GI50: 2.38 µM
  CC50: > 100 µM
[30]
  GI50: 1.66 µM
  CC50: 6.5 µM
[31]
  GI50: 3.58 µM
  CC50: 37 µM
[32]
  GI50: 3.2 µM
  CC50: 34.4 µM
[33]
  GI50: 1.98 µM
  CC50: > 100 µM
[34]
  GI50: 1.92 µM
  CC50: 7.53 µM
[35]
  GI50: 1.99 µM
  CC50: 17.5 µM
[36]
  GI50: 3.11 µM
  CC50: 43.2 µM
[37]
  GI50: 1.87 µM
  CC50: 8.69 µM
[38]
  GI50: 2.24 µM
  CC50: 26.4 µM

## CN(C)c1nc(NCCNS(=O)(=O)c2ccc(C3=Nc4c(N)nc(N)nc4NC(c4ccc(C(F)(F)F)cc4)C3)cc2)nc(Nc2ccc(F)cc2)n1 (stereo not shown) [31g]
[1]
  GI50: 2.99 µM
  CC50: 16.9 µM
[2]
  GI50: 10.8 µM
  CC50: 24.7 µM
[3]
  GI50: 6.14 µM
  CC50: 86 µM
[4]
  GI50: 5.52 µM
  CC50: 86 µM
[5]
  GI50: 10.1 µM
  CC50: 39.8 µM
[6]
  GI50: > 86 µM
  CC50: > 86 µM
[7]
  GI50: 31.4 µM
  CC50: 86 µM
[8]
  GI50: 55 µM
  CC50: 86 µM
[9]
  GI50: 4.88 µM
  CC50: 18.3 µM
[10]
  GI50: 5.52 µM
  CC50: 86 µM
[11]
  GI50: 12.9 µM
  CC50: 86 µM
[12]
  GI50: 11.3 µM
  CC50: 24.2 µM
[13]
  GI50: 2.57 µM
  CC50: 18.8 µM
[14]
  GI50: 11.2 µM
  CC50: 86 µM
[15]
  GI50: 9.73 µM
  CC50: 21.8 µM
[16]
  GI50: 12 µM
  CC50: 86 µM
[18]
  GI50: 19.9 µM
  CC50: 86 µM
[19]
  hemolysis at 24 h, 200 µg/mL: 3%
[20]
  GI50: 3.14 µM
  CC50: 12 µM
[21]
  GI50: 11.2 µM
  CC50: 86 µM
[22]
  GI50: 10.4 µM
  CC50: 21.3 µM
[23]
  GI50: 5.1 µM
  CC50: 86 µM
[24]
  GI50: 36.8 µM
  CC50: 86 µM
[25]
  GI50: 3.51 µM
  CC50: 86 µM
[26]
  GI50: 55.1 µM
  CC50: 86 µM
[27]
  GI50: 4.73 µM
  CC50: 25.9 µM
[28]
  GI50: > 86 µM
  CC50: > 86 µM
[29]
  GI50: 3.24 µM
  CC50: 86 µM
[30]
  GI50: > 86 µM
  CC50: > 86 µM
[31]
  GI50: 22.2 µM
  CC50: 77.4 µM
[32]
  GI50: 11.9 µM
  CC50: 86 µM
[33]
  GI50: 2.74 µM
  CC50: 86 µM
[34]
  GI50: 15 µM
  CC50: 86 µM
[35]
  GI50: 27.7 µM
  CC50: 86 µM
[36]
  GI50: 4.37 µM
  CC50: 86 µM
[37]
  GI50: 5.49 µM
  CC50: 86 µM
[38]
  GI50: 14.3 µM
  CC50: 86 µM
